Experimental data from ChEMBL document CHEMBL3425401, “Identification of 8-aminoadenosine derivatives as a new class of human concentrative nucleoside transporter 2 inhibitors” (ACS Med Chem Lett, 2015).

How the values were obtained:
[1] = target: T1, Sodium/nucleoside cotransporter 2 (Homo sapiens, UniProt O43868); test: Inhibition of human CNT2 expressed in COS7 cells assessed as reduction in sodium-dependent [14C]-inosine uptake in presence of Na+ by liquid scintillation counting method; assay type: cell-based, COS-7
T1 sequence (O43868 whole entry): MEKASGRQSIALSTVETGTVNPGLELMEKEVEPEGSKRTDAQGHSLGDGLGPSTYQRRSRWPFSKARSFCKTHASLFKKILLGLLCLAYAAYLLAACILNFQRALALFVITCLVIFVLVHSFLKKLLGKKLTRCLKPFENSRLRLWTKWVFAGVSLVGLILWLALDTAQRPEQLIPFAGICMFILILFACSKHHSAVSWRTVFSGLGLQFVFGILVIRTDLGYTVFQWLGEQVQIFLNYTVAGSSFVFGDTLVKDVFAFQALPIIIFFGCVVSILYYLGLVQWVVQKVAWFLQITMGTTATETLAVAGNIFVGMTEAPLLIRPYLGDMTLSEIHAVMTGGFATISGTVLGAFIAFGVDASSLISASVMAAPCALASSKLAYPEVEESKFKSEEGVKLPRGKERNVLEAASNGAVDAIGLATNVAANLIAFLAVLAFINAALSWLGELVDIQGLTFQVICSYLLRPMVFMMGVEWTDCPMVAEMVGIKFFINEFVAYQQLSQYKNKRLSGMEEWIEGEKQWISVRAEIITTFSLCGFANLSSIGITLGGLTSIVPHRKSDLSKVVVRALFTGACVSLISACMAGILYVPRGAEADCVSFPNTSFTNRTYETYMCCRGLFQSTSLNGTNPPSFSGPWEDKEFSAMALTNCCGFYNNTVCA

[2] = target: T2, Sodium/nucleoside cotransporter 2 (Homo sapiens) (UniProt O43868); test: Inhibition of human CNT2 expressed in COS7 cells assessed as reduction in sodium-dependent [14C]-inosine uptake at 100 uM in presence of Na+ by liquid scintillation counting method; assay type: cell-based; conditions: COS-7
T2 sequence (whole entry): T1 sequence (O43868 whole entry)

[3] = target: T2, Sodium/nucleoside cotransporter 2 (Homo sapiens); test: Inhibition of human CNT2 expressed in COS7 cells assessed as reduction in sodium-dependent [14C]-inosine uptake at 1000 uM in presence of Na+ by liquid scintillation counting method; assay type: cell-based; conditions: COS-7
[4] = target: T2, Sodium/nucleoside cotransporter 2 (Homo sapiens); test: Potency index, ratio of IC50 for 7,8,3'-trihydroxyflavone to IC50 for test compound against human CNT2 expressed in COS7 cells by sodium-dependent [14C]-inosine uptake assay; assay type: cell-based; conditions: COS-7
[5] = target: T2, Sodium/nucleoside cotransporter 2 (Homo sapiens); test: Potency index, ratio of IC50 for 2'-deoxy-5-fluorouridine to IC50 for test compound against human CNT2 expressed in COS7 cells by sodium-dependent [14C]-inosine uptake assay; assay type: cell-based; conditions: COS-7
[6] = target: T2, Sodium/nucleoside cotransporter 2 (Homo sapiens); test: Potency index, ratio of IC50 for phlorizin to IC50 for test compound against human CNT2 expressed in COS7 cells by sodium-dependent [14C]-inosine uptake assay; assay type: cell-based; conditions: COS-7

Row | SMILES | IC50 [1] [µM] | inhibition [2] [%] | also measured
1 | CCC(=O)OC[C@H]1O[C@@H](n2cnc3c(N)ncnc32)[C@H](O)[C@@H]1O | > 100 | – | –
2 | Nc1ncnc2c1nc(NCc1ccccc1)n2[C@@H]1O[C@H](CO)[C@@H](O)[C@H]1O | 52 | 58 | –
3 | O=c1[nH]c(=O)n([C@H]2C[C@H](O)[C@@H](CO)O2)cc1F [FLOXURIDINE] | > 1000 | 17 | inhibition [3]: < 50%
4 | Nc1ncnc2c1nc(NCc1ccccc1-c1ccccc1)n2[C@@H]1O[C@H](CO)[C@@H](O)[C@H]1O | > 100 | – | –
5 | Nc1ncnc2c1nc(CCc1ccccc1)n2[C@@H]1O[C@H](CO)[C@@H](O)[C@H]1O | – | < 5 | –
6 | C[C@@H](Nc1nc2c(N)ncnc2n1[C@@H]1O[C@H](CO)[C@@H](O)[C@H]1O)c1ccccc1 | – | < 5 | –
7 | COc1ccc(CNc2nc3c(N)ncnc3n2[C@@H]2O[C@H](CO)[C@@H](O)[C@H]2O)cc1 | 36 | – | –
8 | Nc1ncnc2c1nc(OCc1ccccc1)n2[C@@H]1O[C@H](CO)[C@@H](O)[C@H]1O | – | < 5 | –
9 | Nc1ncnc2c1nc(NCCc1ccccc1)n2[C@@H]1O[C@H](CO)[C@@H](O)[C@H]1O | 233 | 39 | –
10 | Nc1ncnc2c1nc(NCc1ccccc1Cl)n2[C@@H]1O[C@H](CO)[C@@H](O)[C@H]1O | 5.7 | – | –
11 | Nc1ncnc2c1nc(NCCCc1ccccc1)n2[C@@H]1O[C@H](CO)[C@@H](O)[C@H]1O | 536 | 26 | –
12 | CCCCCC(=O)OC[C@H]1O[C@@H](n2cnc3c(N)ncnc32)[C@H](O)[C@@H]1O | > 100 | – | –
13 | Nc1ncnc2c1nc(NCc1ccc(Cl)cc1)n2[C@@H]1O[C@H](CO)[C@@H](O)[C@H]1O | 11 | – | –
14 | Nc1ncnc2c1ncn2[C@@H]1O[C@H](COC(=O)NCc2ccccc2)[C@@H](O)[C@H]1O | > 100 | – | –
15 | COC(=O)OC[C@H]1O[C@@H](n2cnc3c(N)ncnc32)[C@H](O)[C@@H]1O | > 100 | – | –
16 | CN(Cc1ccccc1)c1nc2c(N)ncnc2n1[C@@H]1O[C@H](CO)[C@@H](O)[C@H]1O | – | < 5 | –
17 | Nc1ncnc2c1nc(NCc1cccc(-c3ccccc3)c1)n2[C@@H]1O[C@H](CO)[C@@H](O)[C@H]1O | 21 | – | –
18 | Nc1ncnc2c1ncn2[C@@H]1O[C@H](COC(=O)OCc2ccccc2)[C@@H](O)[C@H]1O | > 100 | – | –
19 | CCCCCOC(=O)OC[C@H]1O[C@@H](n2cnc3c(N)ncnc32)[C@H](O)[C@@H]1O | > 100 | – | –
20 | Nc1ncnc2c1nc(NCc1ccc3ccccc3c1)n2[C@@H]1O[C@H](CO)[C@@H](O)[C@H]1O | 5.3 | – | –

Row | SMILES | IC50 [1] [µM] | inhibition [2] [%] | also measured
21 | Nc1ncnc2c1nc(NCc1cccc(Cl)c1)n2[C@@H]1O[C@H](CO)[C@@H](O)[C@H]1O | 5.4 | – | –
22 | Cc1ccccc1CNc1nc2c(N)ncnc2n1[C@@H]1O[C@H](CO)[C@@H](O)[C@H]1O | 65 | – | –
23 | CCNC(=O)OC[C@H]1O[C@@H](n2cnc3c(N)ncnc32)[C@H](O)[C@@H]1O | > 100 | – | –
24 | CCCCCNC(=O)OC[C@H]1O[C@@H](n2cnc3c(N)ncnc32)[C@H](O)[C@@H]1O | > 100 | – | –
25 | CC(=O)OC[C@H]1O[C@@H](n2cnc3c(N)ncnc32)[C@H](O)[C@@H]1O | > 100 | – | –
26 | Nc1ncnc2c1nc(NCc1cccc3ccccc13)n2[C@@H]1O[C@H](CO)[C@@H](O)[C@H]1O | 5.7 | – | –
27 | O=c1cc(-c2cccc(O)c2)oc2c(O)c(O)ccc12 | > 1000 | < 5 | inhibition [3]: < 50%
28 | Nc1ncnc2c1ncn2[C@@H]1O[C@H](COC(=O)Cc2ccccc2)[C@@H](O)[C@H]1O | > 100 | – | –
29 | C[C@H](Nc1nc2c(N)ncnc2n1[C@@H]1O[C@H](CO)[C@@H](O)[C@H]1O)c1ccccc1 | – | < 5 | –
30 | COc1cccc(CNc2nc3c(N)ncnc3n2[C@@H]2O[C@H](CO)[C@@H](O)[C@H]2O)c1 | 13 | – | –
31 | COc1ccccc1CNc1nc2c(N)ncnc2n1[C@@H]1O[C@H](CO)[C@@H](O)[C@H]1O | > 100 | – | –
32 | Nc1ncnc2c1nc(NCc1ccc(-c3ccccc3)cc1)n2[C@@H]1O[C@H](CO)[C@@H](O)[C@H]1O | 0.64 | – | Ratio IC50 [4]: 1500; Ratio IC50 [5]: 1500; Ratio IC50 [6]: 1500
33 | Nc1ncnc2c1nc(SCc1ccccc1)n2[C@@H]1O[C@H](CO)[C@@H](O)[C@H]1O | – | < 5 | –
34 | Cc1ccc(CNc2nc3c(N)ncnc3n2[C@@H]2O[C@H](CO)[C@@H](O)[C@H]2O)cc1 | 11 | – | –
35 | CCOC(=O)OC[C@H]1O[C@@H](n2cnc3c(N)ncnc32)[C@H](O)[C@@H]1O | > 100 | – | –
36 | Nc1ncnc2c1nc(Nc1ccccc1)n2[C@@H]1O[C@H](CO)[C@@H](O)[C@H]1O | 289 | 36 | –
37 | CNC(=O)OC[C@H]1O[C@@H](n2cnc3c(N)ncnc32)[C@H](O)[C@@H]1O | > 100 | – | –
38 | Cc1cccc(CNc2nc3c(N)ncnc3n2[C@@H]2O[C@H](CO)[C@@H](O)[C@H]2O)c1 | 19 | – | –
39 | O=C(CCc1ccc(O)cc1)c1c(O)cc(O)cc1O[C@@H]1O[C@H](CO)[C@@H](O)[C@H](O)[C@H]1O [PHLORIZIN] | > 1000 | 14 | inhibition [3]: < 50%
